The values that follow are results of earlier work, collected in patent US20170049836A1, “COMPOSITIONS COMPRISING BOTANICALS, INCLUDING THE USE AND METHOD OF USE THEREOF” (FEM MED FORMULAS LIMITED PARTNERSHIP, priority 2010, published 2017).

The subject of data set [1] is estrogen receptor-positive breast cancer cells.
For data set [2], the system named is ratio of 2-OHE to 16-αOHE.

Read-outs that look alike come from different tables or passages of the source.

In the case of `C[C@]12CC[C@@H]3c4cc(O)c(O)cc4CC[C@H]3[C@@H]1CCC2=O` [2-OHE, 2-hydroxyestrone], the “effect on cell growth / proliferation” value in data set [1] was “no effect on cell growth”.
Consider `C[C@]12CC[C@@H]3c4ccc(O)cc4CC[C@H]3[C@@H]1C[C@@H](O)C2=O` [16-αOHE, 16-αhydrxyestrone], for which the “effect on cell growth / proliferation” value in data set [1] is reported as “stimulates proliferation”.
For `OCc1c[nH]c2ccccc12` [I3C, Indole-3-carbinol], the “women with sustained increase in ratio of 2-OHE to 16-αOHE” value in data set [2] (17 of 20 women, 200 or 400 mg/day) is listed as 85%. For the same compound, the “average increase in 2-OHE:16-αOHE ratio” value in data set [2] (20 women, 400 mg daily) is 65%; in data set [2] (non-obese women, same trial), 38%; in data set [2] (obese women (four out of five), two-month period), 93%. In addition, the “increase in 2-OHE:16-αOHE ratio, overall” value in data set [2] (200-400 mg, regular consumption, vast majority of women) is reported as “approx. 60%”. For the same compound, the “average increase in ratio of 2-OHE to 16-αOHE” value in data set [2] (200 or 400 mg/day, over the course of the trial) is given as 44%. Besides, the “change in 2-OHE:16-αOHE ratio” value in data set [2] (all 20 women, 300 or 400 mg, 4 weeks) is recorded as “significantly increased”.
